According to US20230357272A1, “OCTAHYDROPYRAZINODIAZANAPHTHYRIDINE DIONE COMPOUNDS” (MEDSHINE DISCOVERY INC., priority 2020, published 2023):

Key:
NCI-H358 cells = assay: Anti-proliferation experiment of H358 cells (CellTiter-Glo); assay type: cell-based; details: Homo sapiens, 120 h, 5 days
Protocol: RPMI-1640 culture medium, penicillin/streptomycin antibiotics purchased from Wisent, and fetal bovine serum purchased from Biosera. CellTiter-Glo (chemiluminescence detection reagent for cell viability) reagent purchased from Promega. NCI-H358 cell line purchased from the Cell Bank of the Chinese Academy of Sciences. Nivo multi-label analyzer (PerkinElmer).
NCI-H358 cells were seeded in a white 96-well plate with 80 μL of cell suspension per well, which contained 4000 NCI-H358 cells. The cell plate was incubated overnight in a carbon dioxide incubator.
(§1) The compounds to be tested were diluted 3-fold with a row gun to the ninth concentration, that is, from 2 mM to 304 nM, and a double-duplication experiment was set up. 78 μL of culture medium was added to a middle plate, and then 2 μL of gradient diluted compound per well was transferred to the middle plate according to the corresponding position. After being thoroughly mixed, 20 μL per well was transferred to the cell plate. The concentration range of the compound transferred to the cell plate was 10 μM to 1.52 nM. The cell plate was placed in the carbon dioxide incubator for 5 days. Another cell plate was prepared, and the signal value was read as the maximum value (Max value in the equation below) on the day of administration to participate in data analysis. 25 μL of cell viability chemiluminescence detection reagent was added to each well of the cell plate, and incubated at room temperature for 10 minutes to stabilize the luminescence signal. A multi-label analyzer was used for reading.
25 μL of cell viability chemiluminescence detection reagent was added to each well of the cell plate, and incubated at room temperature for 10 minutes to stabilize the luminescence signal. A multi-label analyzer was used for reading.
Using the equation (Sample−Min)/(Max−Min)*100% to convert the raw data into inhibition rate, and the value of IC50 might be obtained by curve fitting with four parameters (obtained by “log (inhibitor) vs. response—Variable slope” mode in GraphPad Prism). Table 1 provides the inhibitory activity of the compounds of the present disclosure on the proliferation of NCI-H358 cells.

MIA-PA-CA-2 cells = assay: Anti-proliferation experiment of MIA-PA-CA-2 cells (CellTiter-Glo); assay type: cell-based; details: Homo sapiens, MIA PaCa-2, 72 h, 3 days
Protocol: DMEM culture medium, fetal bovine serum purchased from Biosera, and horse serum purchased from Gibco. CellTiter-Glo (chemiluminescence detection reagent for cell viability) reagent purchased from Promega. MIA-PA-CA-2 cell line purchased from Nanjing CoBioer Biotechnology Co., Ltd. EnVision multi-label analyzer (PerkinElmer).
MIA-PA-CA-2 cells were seeded in a white 96-well plate with 80 μL of cell suspension per well, which contained 1000 MIA-PA-CA-2 cells. The cell plate was incubated overnight in a carbon dioxide incubator.
as §1, with “diluted 5-fold” for “diluted 3-fold”, “the eighth” for “the ninth”, “to 26” for “to 304”, “to 0.13” for “to 1.52”, “for 3” for “for 5”
Using the equation (Sample−Min)/(Max−Min)*100% to convert the raw data into inhibition rate, and the value of IC50 might be obtained by curve fitting with four parameters (obtained by “log (inhibitor)/response—Variable scope” mode in GraphPad Prism software). Table 2 provides the inhibitory activity of the compounds of the present disclosure on the proliferation of MIA-PA-CA-2 cells.

| SMILES | IC50 (NCI-H358 cells) | IC50 (MIA-PA-CA-2 cells) |
| --- | --- | --- |
| C=CC(=O)N1CCN2c3c(c(=O)n(-c4c(C(C)C)ncnc4C(C)C)c4c(=O)n(-c5c(N)c(Cl)cc(Cl)c5F)c(C(F)(F)F)cc34)OCC[C@H]2C1 [Compound 4] | 0.9 nM | 1 nM |
| C=CC(=O)N1CCN2c3c(c(=O)n(-c4c(CC)ncnc4CC)c4c(=O)n(-c5c(N)c(Cl)cc(Cl)c5F)c(C(F)(F)F)cc34)OCC[C@H]2C1 [Compound 5] | 4 nM | 5 nM |
| C=CC(=O)N1CCN2c3c(c(=O)n(-c4c(CC)cncc4CC)c4c(=O)n(-c5c(N)c(Cl)cc(Cl)c5F)c(C(F)(F)F)cc34)OCC[C@H]2C1 [Compound 6] | 2 nM | 4 nM |
